Holding throughout (type): cell-based
Assay [1] has as its target T1, HER2 S310F (Homo sapiens, UniProt P04626, S310F).
T1 construct: expressed in transfected cells; host or cells: BaF3 (murine pro-B)
Kind of assay: BaF3 cell proliferation assay, HER2 S310F (Table B). Particulars: potency code, 3 days, CellTiterGlo, read-out: HER2 S310F (Activity for Inhibiting HER2). (In general: In ATP-based viability assays light output follows the ATP content of the culture.)

For assay [2], the target named is T2, EGFR WT (Homo sapiens, UniProt P00533). Kind of assay: BaF3 cell proliferation assay, EGFR WT (Table A). Conditions: potency code, 3 days, CellTiterGlo, read-out: EGFR WT (Activity for Inhibiting EGFR). As for the experimental part:
(§1) Retroviral Production: EGFR mutants were subcloned into pMXs-IRES-Blasticidin (RTV-016, Cell Biolabs, San Diego, Calif.). Retroviral expression vector retrovirus was produced by transient transfection of HEK 293T cells with the retroviral EGFR mutant expression vector pMXs-IRES-Blasticidin (RTV-016, Cell Biolabs), pCMV-Gag-Pol vector and pCMV-VSV-G-Envelope vector. Briefly, HEK 293T/17 cells were plated in 100 mm collagen coated plate (354450, Corning Life Sciences, Tewksbury, Mass.) (4×10^5 per plate) and incubated overnight. The next day, retroviral plasmids (3 μg of EGFR mutant, 1.0 μg of pCMV-Gag-Pol and 0.5 μg pCMV-VSV-G) were mixed in 500 μl of Optimem (31985, Life Technologies). The mixture was incubated at room temperature for 5 min and then added to Optimem containing transfection reagent Lipofectamine (11668, Invitrogen) and incubated for 20 minutes. Mixture was then added dropwise to HEK 293T cells. The next day the medium was replaced with fresh culture medium and retrovirus was harvested @ 24 and 48 hrs.
(§2) Generation of EGFR mutant stable cell lines: BaF3 cells (1.5E5 cells) were infected with 1 ml of viral supernatant supplemented with 8 μg/ml polybrene by centrifuging for 30 min at 1000 rpm. Cells were placed in a 37° C. incubator overnight. Cells were then spun for 5 minutes to pellet the cells. Supernatant was removed and cells re-infected a fresh 1 ml of viral supernatant supplemented with 8 μg/ml polybrene by centrifuging for 30 min at 1000 rpm. Cells were placed in 37° C. incubator overnight. […] After 48 hours cells were selected for retroviral infection in 10 μg/ml Blasticidin for one week. Blasticidin resistant populations were washed twice in phosphate buffered saline before plating in media lacking IL-3 to select for IL-3 independent growth.
(§3) EC50 values were determined with the same application.

Assay [3] has as its target T3, HER2 YVMA (Homo sapiens, UniProt P04626, INS775YVMA).
T3 construct: expressed in transfected cells; host or cells: BaF3 (murine pro-B)
Kind of assay: BaF3 cell proliferation assay, HER2 YVMA (Table B). Particulars: potency code, 3 days, CellTiterGlo, read-out: HER2 YVMA (Activity for Inhibiting HER2).

The target in assay [4] is T4, EGFR V3 (Homo sapiens, UniProt P00533, DELINS30-297G).
T4 construct: expressed in transfected cells; host or cells: BaF3 (murine pro-B), retroviral pMXs-IRES-Blasticidin
T4 sequence (P00533 with tags, fused parts or gaps DELINS30-297G): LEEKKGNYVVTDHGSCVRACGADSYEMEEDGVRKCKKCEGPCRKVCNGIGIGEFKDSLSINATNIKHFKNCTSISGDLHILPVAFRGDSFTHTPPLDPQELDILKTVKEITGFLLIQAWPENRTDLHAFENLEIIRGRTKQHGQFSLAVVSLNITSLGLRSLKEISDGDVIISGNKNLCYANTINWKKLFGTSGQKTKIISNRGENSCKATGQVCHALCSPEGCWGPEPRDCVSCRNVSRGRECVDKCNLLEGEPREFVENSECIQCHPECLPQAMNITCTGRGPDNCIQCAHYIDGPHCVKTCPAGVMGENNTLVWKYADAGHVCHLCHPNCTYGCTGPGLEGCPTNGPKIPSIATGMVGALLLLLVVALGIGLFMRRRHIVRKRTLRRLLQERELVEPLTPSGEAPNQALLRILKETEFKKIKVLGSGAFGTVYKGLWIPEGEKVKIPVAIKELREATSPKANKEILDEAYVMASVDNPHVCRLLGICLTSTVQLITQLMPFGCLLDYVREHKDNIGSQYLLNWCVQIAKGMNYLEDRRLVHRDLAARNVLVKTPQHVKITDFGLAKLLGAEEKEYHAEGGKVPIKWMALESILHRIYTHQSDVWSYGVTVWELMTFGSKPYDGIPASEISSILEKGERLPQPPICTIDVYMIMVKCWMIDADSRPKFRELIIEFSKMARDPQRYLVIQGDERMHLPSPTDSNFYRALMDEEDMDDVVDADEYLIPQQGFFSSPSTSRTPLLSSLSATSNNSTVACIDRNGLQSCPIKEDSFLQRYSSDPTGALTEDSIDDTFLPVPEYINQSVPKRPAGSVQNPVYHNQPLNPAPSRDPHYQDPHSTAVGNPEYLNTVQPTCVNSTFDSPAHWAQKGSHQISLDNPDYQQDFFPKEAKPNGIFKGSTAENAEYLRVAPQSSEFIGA
Kind of assay: BaF3 cell proliferation assay, EGFR V3 (Table A). Particulars: potency code, 3 days, CellTiterGlo, read-out: EGFR V3 (Activity for Inhibiting EGFR). On the procedure:
as §1, §2, §3

The target in assay [5] is T4, EGFR V3. The assay is described as follows: Activity for inhibiting EGFR (Table A), EGFR V3 (EGFR-Viii). Conditions: read-out: EGFR V3, potency code (IC50).
For assay [6], the target named is T3, HER2 YVMA. Kind of assay: Activity for inhibiting HER2 (Table B), HER2 YVMA. Conditions: read-out: HER2 YVMA, potency code (IC50). On the procedure: as §3
The target of assay [7] is T1, HER2 S310F. The assay is described as follows: Activity for inhibiting HER2 (Table B), HER2 S310F. Conditions: read-out: HER2 S310F, potency code (IC50). As for the experimental part: as §3
Assay [8] addresses T2, EGFR WT. The assay is described as follows: Activity for inhibiting EGFR (Table A), EGFR WT. Particulars: read-out: EGFR WT, potency code (IC50).

Structures are written as SMILES. pIC50: −log10 of the molar value. Bounds are passed on as bounds.

T3 sequence (P04626 with tags, fused parts or gaps INS775YVMA): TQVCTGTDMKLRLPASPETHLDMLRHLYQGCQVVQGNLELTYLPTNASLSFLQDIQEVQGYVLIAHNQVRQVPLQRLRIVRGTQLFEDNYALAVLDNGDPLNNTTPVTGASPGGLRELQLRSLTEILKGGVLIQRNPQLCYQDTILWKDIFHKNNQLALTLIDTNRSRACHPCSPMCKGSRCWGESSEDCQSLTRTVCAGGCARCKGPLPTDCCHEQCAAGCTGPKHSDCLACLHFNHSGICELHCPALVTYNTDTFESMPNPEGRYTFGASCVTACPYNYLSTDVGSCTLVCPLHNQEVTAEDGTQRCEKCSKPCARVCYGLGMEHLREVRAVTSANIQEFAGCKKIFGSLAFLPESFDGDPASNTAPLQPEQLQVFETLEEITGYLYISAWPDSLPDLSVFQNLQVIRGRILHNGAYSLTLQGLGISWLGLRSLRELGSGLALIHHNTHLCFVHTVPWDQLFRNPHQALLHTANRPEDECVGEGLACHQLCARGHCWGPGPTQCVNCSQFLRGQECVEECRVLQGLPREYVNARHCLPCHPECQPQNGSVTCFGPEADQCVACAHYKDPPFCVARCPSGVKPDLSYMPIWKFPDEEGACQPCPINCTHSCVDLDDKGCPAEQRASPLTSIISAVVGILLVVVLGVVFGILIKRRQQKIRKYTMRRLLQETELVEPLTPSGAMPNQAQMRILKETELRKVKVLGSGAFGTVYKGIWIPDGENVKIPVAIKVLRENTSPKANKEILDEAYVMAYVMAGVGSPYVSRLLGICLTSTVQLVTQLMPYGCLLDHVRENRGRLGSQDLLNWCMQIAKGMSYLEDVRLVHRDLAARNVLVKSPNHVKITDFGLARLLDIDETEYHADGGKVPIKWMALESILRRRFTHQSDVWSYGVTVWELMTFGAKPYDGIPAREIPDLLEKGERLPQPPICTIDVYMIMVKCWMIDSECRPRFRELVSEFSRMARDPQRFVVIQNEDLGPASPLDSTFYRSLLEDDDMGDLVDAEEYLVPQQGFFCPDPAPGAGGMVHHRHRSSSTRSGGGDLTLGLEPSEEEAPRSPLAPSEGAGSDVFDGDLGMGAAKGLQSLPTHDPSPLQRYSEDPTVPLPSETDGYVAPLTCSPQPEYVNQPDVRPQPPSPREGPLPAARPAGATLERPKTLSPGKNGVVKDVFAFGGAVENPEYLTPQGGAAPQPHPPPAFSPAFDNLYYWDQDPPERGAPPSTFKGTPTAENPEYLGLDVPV
T1 sequence (P04626 23-1255 S310F): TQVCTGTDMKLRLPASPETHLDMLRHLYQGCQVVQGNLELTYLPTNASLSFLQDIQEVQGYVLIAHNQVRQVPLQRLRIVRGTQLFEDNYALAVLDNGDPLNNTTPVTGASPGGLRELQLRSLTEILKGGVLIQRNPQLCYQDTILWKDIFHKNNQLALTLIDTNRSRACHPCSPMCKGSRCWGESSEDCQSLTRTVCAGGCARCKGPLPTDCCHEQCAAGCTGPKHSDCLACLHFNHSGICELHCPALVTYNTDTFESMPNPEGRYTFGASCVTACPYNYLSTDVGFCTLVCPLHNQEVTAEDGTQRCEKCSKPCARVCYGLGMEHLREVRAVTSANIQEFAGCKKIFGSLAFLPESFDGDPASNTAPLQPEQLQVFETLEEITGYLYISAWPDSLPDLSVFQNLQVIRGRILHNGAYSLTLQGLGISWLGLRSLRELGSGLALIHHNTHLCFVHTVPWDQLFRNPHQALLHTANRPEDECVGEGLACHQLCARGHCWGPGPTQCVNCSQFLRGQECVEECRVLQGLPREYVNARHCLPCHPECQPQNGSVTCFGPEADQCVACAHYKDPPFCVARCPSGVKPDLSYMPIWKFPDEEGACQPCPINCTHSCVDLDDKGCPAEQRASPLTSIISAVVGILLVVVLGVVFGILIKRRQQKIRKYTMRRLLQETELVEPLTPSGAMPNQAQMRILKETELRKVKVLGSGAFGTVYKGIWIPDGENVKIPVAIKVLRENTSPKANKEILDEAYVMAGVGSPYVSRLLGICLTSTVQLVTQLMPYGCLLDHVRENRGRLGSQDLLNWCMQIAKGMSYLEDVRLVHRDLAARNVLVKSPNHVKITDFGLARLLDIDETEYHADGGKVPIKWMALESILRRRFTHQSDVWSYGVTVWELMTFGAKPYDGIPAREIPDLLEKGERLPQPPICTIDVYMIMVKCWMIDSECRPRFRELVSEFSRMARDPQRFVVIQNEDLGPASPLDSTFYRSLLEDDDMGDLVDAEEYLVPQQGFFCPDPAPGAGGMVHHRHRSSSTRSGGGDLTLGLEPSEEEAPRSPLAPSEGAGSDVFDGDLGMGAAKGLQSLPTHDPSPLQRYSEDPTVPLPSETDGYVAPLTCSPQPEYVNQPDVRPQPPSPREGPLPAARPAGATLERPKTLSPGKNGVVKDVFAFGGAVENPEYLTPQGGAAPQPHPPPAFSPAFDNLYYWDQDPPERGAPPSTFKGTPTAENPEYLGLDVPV
T2 sequence (P00533 25-1210 N540K): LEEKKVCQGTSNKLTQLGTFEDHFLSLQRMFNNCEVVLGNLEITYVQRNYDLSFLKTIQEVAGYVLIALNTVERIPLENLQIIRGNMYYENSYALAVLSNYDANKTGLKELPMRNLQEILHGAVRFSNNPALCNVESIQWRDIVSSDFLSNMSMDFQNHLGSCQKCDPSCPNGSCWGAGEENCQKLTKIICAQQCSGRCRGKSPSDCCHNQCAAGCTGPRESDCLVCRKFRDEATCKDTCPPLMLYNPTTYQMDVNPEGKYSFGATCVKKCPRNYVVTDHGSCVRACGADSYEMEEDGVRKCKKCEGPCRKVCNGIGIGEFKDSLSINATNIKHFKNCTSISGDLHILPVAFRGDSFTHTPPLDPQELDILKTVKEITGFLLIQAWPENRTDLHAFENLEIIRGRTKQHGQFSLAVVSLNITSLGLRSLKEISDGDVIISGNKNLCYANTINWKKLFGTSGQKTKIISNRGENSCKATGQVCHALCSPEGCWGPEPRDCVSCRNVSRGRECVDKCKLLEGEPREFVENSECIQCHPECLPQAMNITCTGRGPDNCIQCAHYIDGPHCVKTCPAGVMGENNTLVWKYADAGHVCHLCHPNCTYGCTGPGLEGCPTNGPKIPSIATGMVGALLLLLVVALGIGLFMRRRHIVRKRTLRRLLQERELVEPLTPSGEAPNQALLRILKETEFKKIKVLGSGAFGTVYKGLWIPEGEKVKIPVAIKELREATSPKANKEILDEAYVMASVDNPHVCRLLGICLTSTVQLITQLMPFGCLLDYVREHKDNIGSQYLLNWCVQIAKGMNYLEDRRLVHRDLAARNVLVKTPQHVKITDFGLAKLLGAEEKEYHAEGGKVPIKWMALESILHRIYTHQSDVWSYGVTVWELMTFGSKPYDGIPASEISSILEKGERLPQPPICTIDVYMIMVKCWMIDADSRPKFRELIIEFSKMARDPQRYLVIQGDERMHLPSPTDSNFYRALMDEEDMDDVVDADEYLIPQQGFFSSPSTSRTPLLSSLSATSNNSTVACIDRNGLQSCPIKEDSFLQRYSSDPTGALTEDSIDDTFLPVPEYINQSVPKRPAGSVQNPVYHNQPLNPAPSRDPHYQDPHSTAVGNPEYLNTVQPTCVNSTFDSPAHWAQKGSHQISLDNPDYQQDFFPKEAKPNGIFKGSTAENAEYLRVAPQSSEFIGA

In the case of `C=CC(=O)Nc1cc2c(Nc3ccc(OCc4ccccn4)c(Cl)c3)ncnc2cc1C#C[C@H]1CCNC1` [compound 86, N-(4-((3-chloro-4-(pyridin-2-ylmethoxy)phenyl)amino)-7-(pyrrolidin-3-ylethynyl)quinazolin-6-yl)acrylamide], the pIC50 is 7.52 to 7.70 in assay [1]; 6.00 to 6.30 in assay [2]; 6.70 to 7.00 in assay [3]; 6.70 to 7.00 in assay [4]; 6.70 to 7.00 in assay [5]; 6.70 to 7.00 in assay [6]. The pIC50 was 7.52 to 7.70 in assay [7] and 6.00 to 6.30 in assay [8].

In the case of `C=CC(=O)Nc1cc2c(Nc3ccc(OCc4ccccn4)c(Cl)c3)ncnc2cc1C#C[C@@H]1CCCN1C` [compound 87, N-(4-((3-chloro-4-(pyridin-2-ylmethoxy)phenyl)amino)-7-((1-methylpyrrolidin-2-yl)ethynyl)quinazolin-6-yl)acrylamide], the pIC50 in assay [1] is 7.30 to 7.52; in assay [2], below 6.00; in assay [3] it was 6.52 to 6.70; in assay [4], 6.70 to 7.00; in assay [5] it was 6.70 to 7.00; in assay [6] it was 6.52 to 6.70. The pIC50 is 7.30 to 7.52 in assay [7] and below 6.00 in assay [8].

For `C=CC(=O)Nc1cc2c(Nc3ccc(OCc4ccccn4)c(Cl)c3)ncnc2cc1C#CC(C)(C)NC` [compound 88, N-(4-((3-chloro-4-(pyridin-2-ylmethoxy)phenyl)amino)-7-(3-methyl-3-(methylamino)but-1-yn-1-yl)quinazolin-6-yl)acrylamide], the pIC50 in assay [1] was 7.70 to 8.00; in assay [2] it was 6.00 to 6.30; in assay [3], 6.70 to 7.00; in assay [4], 7.30 to 7.52; in assay [5], 7.30 to 7.52; in assay [6], 6.70 to 7.00. In addition, the values for the pIC50 in assay [7] and in assay [8] were 7.70 to 8.00 and 6.00 to 6.30, respectively.

On to `CC#CC(=O)Nc1cc2c(Nc3ccc(OCc4ccccn4)c(Cl)c3)ncnc2cc1C#CC(C)(C)N1CCN(C)CC1` [compound 89, N-(4-((3-chloro-4-(pyridin-2-ylmethoxy)phenyl)amino)-7-(3-methyl-3-(4-methylpiperazin-1-yl)but-1-yn-1-yl)quinazolin-6-yl)but-2-ynamide], for which the pIC50 in assay [1] is 7.70 to 8.00; in assay [2], 7.00 to 7.30; in assay [3], 7.00 to 7.30; in assay [4] it was 7.30 to 7.52; in assay [5], 7.30 to 7.52; in assay [6], 7.00 to 7.30. In addition, the values for the pIC50 in assay [7] and in assay [8] were 7.70 to 8.00 and 7.00 to 7.30, respectively.

`C=CC(=O)Nc1cc2c(Nc3ccc(OCc4ccccn4)c(Cl)c3)ncnc2cc1OC[C@H]1COCCN1` [compound 90, N-(4-((3-chloro-4-(pyridin-2-ylmethoxy)phenyl)amino)-7-(morpholin-3-ylmethoxy)quinazolin-6-yl)acrylamide]: the pIC50 in assay [1] is 7.52 to 7.70; in assay [2] it was 6.00 to 6.30; in assay [3], 6.70 to 7.00; in assay [4], 7.30 to 7.52; in assay [5] it was 7.30 to 7.52; in assay [6], 6.70 to 7.00. The pIC50 was 7.52 to 7.70 in assay [7] and 6.00 to 6.30 in assay [8].

As for `C=CC(=O)Nc1cc2c(Nc3ccc(Oc4ccccc4)c(Cl)c3)ncnc2cc1O[C@@H]1CCN(C)C1` [compound 91, (R)-N-(4-((3-chloro-4-phenoxyphenyl)amino)-7-((1-methylpyrrolidin-3-yl)oxy)quinazolin-6-yl)acrylamide], the pIC50 was 7.30 to 7.52 in assay [1]; 6.00 to 6.30 in assay [2]; 6.52 to 6.70 in assay [3]; 7.00 to 7.30 in assay [4]; 7.00 to 7.30 in assay [5]; 6.52 to 6.70 in assay [6]. Further, the pIC50 in assay [7] was 7.30 to 7.52; in assay [8], 6.00 to 6.30.

Consider `C=CC(=O)Nc1cc2c(Nc3ccc(OCc4ccccn4)c(Cl)c3)ncnc2cc1OCCN1CCC2C1CCN2C` (stereo not drawn) [compound 92, N-(4-((3-chloro-4-(pyridin-2-ylmethoxy)phenyl)amino)-7-(2-(4-methylhexahydropyrrolo[3,2-b]pyrrol-1(2H)-yl)ethoxy)quinazolin-6-yl)acrylamide], for which the pIC50 in assay [1] was 7.52 to 7.70; in assay [2], 6.70 to 7.00; in assay [3], 6.70 to 7.00; in assay [4], 7.30 to 7.52; in assay [5], 7.30 to 7.52; in assay [6], 6.70 to 7.00. For the same compound, the figures for the pIC50 in assay [7] and in assay [8] were 7.52 to 7.70 and 6.70 to 7.00, respectively.

With `C=CC(=O)Nc1cc2c(Nc3ccc(OCc4ccccn4)c(Cl)c3)ncnc2cc1N1CC(N(C)C)C1` [compound 93, N-(4-((3-chloro-4-(pyridin-2-ylmethoxy)phenyl)amino)-7-(3-(dimethylamino)azetidin-1-yl)quinazolin-6-yl)acrylamide], the pIC50 in assay [1] was 6.00 to 6.30; in assay [2] it was below 6.00; in assay [3] it was below 6.00; in assay [4], 6.52 to 6.70; in assay [5], 6.52 to 6.70; in assay [6], below 6.00. Moreover, the figures for the pIC50 in assay [7] and in assay [8] were 6.00 to 6.30 and below 6.00, respectively.

For `C=CC(=O)Nc1cc2c(Nc3ccc(OCc4ccccn4)c(Cl)c3)ncnc2cc1OCC(C)(C)N(C)C` [compound 94, N-(4-((3-chloro-4-(pyridin-2-ylmethoxy)phenyl)amino)-7-(2-(dimethylamino)-2-methylpropoxy)quinazolin-6-yl)acrylamide], the pIC50 is 7.30 to 7.52 in assay [1]; 6.30 to 6.52 in assay [2]; 6.30 to 6.52 in assay [3]; 7.30 to 7.52 in assay [4]; 7.30 to 7.52 in assay [5]; 6.30 to 6.52 in assay [6]. In addition, the pIC50 in assay [7] was 7.30 to 7.52; in assay [8] it was 6.30 to 6.52.

`C=CC(=O)Nc1cc2c(Nc3ccc(OCc4ccccn4)c(Cl)c3)ncnc2cc1OCC[C@H]1CCCN1C` [compound 95, N-(4-((3-chloro-4-(pyridin-2-ylmethoxy)phenyl)amino)-7-(2-(1-methylpyrrolidin-2-yl)ethoxy)quinazolin-6-yl)acrylamide]: the pIC50 in assay [1] is 8.00 to 8.30; in assay [2], 6.70 to 7.00; in assay [3] it was 7.30 to 7.52; in assay [4], 7.52 to 7.70; in assay [5], 7.52 to 7.70; in assay [6] it was 7.30 to 7.52. Also, the pIC50 in assay [7] is 8.00 to 8.30; in assay [8] it was 6.70 to 7.00.

For the compound `C=CC(=O)Nc1cc2c(Nc3cnc(NCc4ccccn4)c(Cl)c3)ncnc2cc1OCCN1CCOCC1` [compound 97, N-(4-((5-chloro-6-((pyridin-2-ylmethyl)amino)pyridin-3-yl)amino)-7-(2-morpholinoethoxy)quinazolin-6-yl)acrylamide], the pIC50 in assay [1] is 6.52 to 6.70; in assay [2] it was 6.00 to 6.30; in assay [3], 6.00 to 6.30; in assay [4], 7.00 to 7.30; in assay [5] it was 7.00 to 7.30; in assay [6], 6.00 to 6.30. In addition, the pIC50 was 6.52 to 6.70 in assay [7] and 6.00 to 6.30 in assay [8].

For `C=CC(=O)Nc1cc2c(Nc3ccc(OCc4ccccn4)c(Cl)c3)ncnc2cc1OCC1(CN(C)C)CC1` [compound 98, N-(4-((3-chloro-4-(pyridin-2-ylmethoxy)phenyl)amino)-7-((1-((dimethylamino)methyl)cyclopropyl)methoxy)quinazolin-6-yl)acrylamide], the pIC50 in assay [1] was 7.52 to 7.70; in assay [2], 6.52 to 6.70; in assay [3] it was 6.52 to 6.70; in assay [4], 7.30 to 7.52; in assay [5], 7.30 to 7.52; in assay [6], 6.52 to 6.70. Further, the pIC50 is 7.52 to 7.70 in assay [7] and 6.52 to 6.70 in assay [8].

For the origin of these results see patent US11034672B1, “Tyrosine kinase inhibitor compositions, methods of making and methods of use” (Black Diamond Therapeutics, Inc., priority 2018, dated 2021).
